Experimental data reported in patent US10106542B2, “Substituted 6,7-dihydropyrazolo[1,5-a]pyrazines as negative allosteric modulators of mGluR2 receptors” (Janssen Pharmaceutica NV, priority 2013, dated 2018).

What was measured:
[1] = target: T1, human mGlu2 receptor (Homo sapiens, UniProt Q14416); experiment: [35S]GTPγS binding assay (mGluR2 negative allosteric modulation); type: biochemical; conditions: for IC50: membranes from CHO cells transfected with human mGlu2 receptor, glutamate 60 μM, pIC50 = −log IC50 (M), read-out: GTPγS - hmGluR2 anGT pIC50 (converted); for Emax: read-out: GTPγS - hmGluR2 anGT Emax
T1 construct: expressed in transfected cells; host or cells: CHO cells (membrane preparation)
In short: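 Negative allosteric modulation read as [35S]GTPγS (0.1 nM) incorporation over 30 min at 30 °C, expressed as % of the response to an EC80-equivalent glutamate concentration. Assay used 7 μg human mGlu2 CHO membrane protein in HEPES pH 7.4 buffer with NaCl, MgCl2, GDP and saponin; bound label collected by filtration.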

[2] = relative maximal effect: maximal % inhibition relative to the control glutamate response

T1 sequence (Q14416 19-872): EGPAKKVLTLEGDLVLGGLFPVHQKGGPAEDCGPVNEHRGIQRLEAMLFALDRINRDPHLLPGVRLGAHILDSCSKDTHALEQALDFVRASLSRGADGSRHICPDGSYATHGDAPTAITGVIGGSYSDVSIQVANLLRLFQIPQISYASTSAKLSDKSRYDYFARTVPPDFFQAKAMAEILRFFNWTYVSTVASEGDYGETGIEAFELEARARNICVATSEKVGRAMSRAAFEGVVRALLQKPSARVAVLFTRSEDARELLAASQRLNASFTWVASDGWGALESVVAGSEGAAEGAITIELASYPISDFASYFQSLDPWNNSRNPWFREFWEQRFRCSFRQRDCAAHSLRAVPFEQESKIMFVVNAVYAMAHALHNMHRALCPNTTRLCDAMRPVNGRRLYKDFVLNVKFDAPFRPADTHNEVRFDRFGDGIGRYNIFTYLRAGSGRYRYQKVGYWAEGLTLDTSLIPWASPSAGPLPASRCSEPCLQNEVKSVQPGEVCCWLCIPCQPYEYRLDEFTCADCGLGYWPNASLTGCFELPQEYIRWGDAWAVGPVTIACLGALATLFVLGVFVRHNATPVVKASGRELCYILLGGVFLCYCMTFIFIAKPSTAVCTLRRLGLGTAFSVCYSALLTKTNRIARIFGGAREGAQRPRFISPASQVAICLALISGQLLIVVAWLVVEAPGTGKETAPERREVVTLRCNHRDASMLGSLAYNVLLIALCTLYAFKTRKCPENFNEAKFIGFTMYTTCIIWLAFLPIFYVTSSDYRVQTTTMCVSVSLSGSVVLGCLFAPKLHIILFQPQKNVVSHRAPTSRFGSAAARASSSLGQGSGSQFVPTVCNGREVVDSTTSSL

Structure (SMILES)	IC50 [1]	Emax [1, 2]	melting point	GTPγS - hmGluR2 anGT Emax [1, 2]
COc1cc(-c2cnn3c2C(=O)N(c2ccc(C(F)(F)F)c(C#N)c2)C[C@@H]3C)ccn1 [compound 88]	4.07e-08 M	102%	157.75 °C (dec.)	
C[C@H]1CN(c2ccc(Cl)c(Cl)c2)C(=O)c2c(-c3ccnc(C(F)F)c3)cnn21 [compound 114]	7.08e-09 M	104%	177.6 °C	
COc1cc(N2C[C@H](C)n3ncc(-c4ccnc(C)c4)c3C2=O)cc(F)c1F [compound 84]	8.13e-07 M	104%	101.2 °C	
CCOc1cc(N2C[C@H](C)n3ncc(-c4ccncc4)c3C2=O)ccc1C(F)(F)F [compound 55]	1.62e-08 M	104%	104.2 °C	
Cc1cc(-c2cnn3c2C(=O)N(c2ccc(Cl)c(F)c2)C[C@@H]3C)ccn1 [compound 62]	3.31e-08 M	105%	141.7 °C	
Cc1cc(-c2cnn3c2C(=O)N(c2ccc(F)c(C)c2)C[C@@H]3C)ccn1 [compound 21]	6.17e-08 M	107%	219.2 °C	
COc1ccc(-c2cnn3c2C(=O)N(c2ccc(C(F)(F)F)cc2)C[C@@H]3C)cn1 [compound 150]	4.68e-07 M	103%	> 300 °C	
Cc1cc(-c2cnn3c2C(=O)N(c2ccc(C(F)(F)F)cc2)CC3CF)ccn1 (stereo not drawn) [compound 52, 7-(Fluoromethyl)-3-(2-methyl-4-pyridyl)-5-[4-(trifluoromethyl)phenyl]-6,7-dihydropyrazolo[1,5-a]pyrazin-4-one]	1.05e-08 M	107%	> 300 °C	
C[C@H]1CN(c2ccc(Cl)cc2)C(=O)c2c(-c3ccncc3)cnn21 [compound 73]	1.29e-07 M	102%	144.3 °C	
C[C@H]1CN(c2ccc(C(F)(F)F)cc2)C(=O)c2c(-c3ccnc(N4CCCC4)c3)cnn21 [compound 105]	2.75e-08 M	108%	124 °C	
CC(O)c1cc(-c2cnn3c2C(=O)N(c2ccc(C(F)(F)F)cc2)C[C@@H]3C)ccn1 (stereo partly drawn) [compound 128]	5.89e-07 M	104%	139.8 °C	
Cc1cc(-c2cnn3c2C(=O)N(c2ccc(OC(F)F)cc2)C[C@@H]3C)ccn1 [compound 27]	1.38e-07 M	104%	137.1 °C	
Cc1cc(-c2cnn3c2C(=O)N(c2ccc(Cl)c(C)c2)C[C@@H]3C)ccn1 [compound 7]	7.59e-09 M	102%	126.7 °C	
CC[C@H]1CN(c2ccc(C(F)(F)F)cc2)C(=O)c2c(-c3ccnc(C)c3)cnn21 [compound 130]	1.7e-08 M	102%	134.4 °C	
CN(C)c1cc(-c2cnn3c2C(=O)N(c2ccc(Cl)c(Cl)c2)CC3CF)ccn1 (single isomer, unassigned) [compound 90]	3.09e-09 M	103%	93.7 °C	
C[C@H]1CN(c2ccc(C(F)(F)F)cc2)C(=O)c2c(-c3ccnc(C(F)F)c3)cnn21 [compound 131]	2.45e-08 M	105%	134.7 °C	
Cc1cc(-c2cnn3c2C(=O)N(c2ccc(Cl)c(C(F)(F)F)c2)C[C@@H]3C)cc(C)n1 [compound 54]	1.05e-08 M	105%	205.1 °C	
Cc1cc(-c2cnn3c2C(=O)N(c2cccc(C(F)(F)F)c2)C[C@@H]3C)ccn1 [compound 23]	1.1e-07 M	104%	139.2 °C	
Cc1cc(-c2cnn3c2C(=O)N(c2ccc(C4(C(F)(F)F)CC4)cc2)C[C@@H]3C)ccn1 [compound 136]	4.37e-08 M	102%	126.2 °C	
COc1cc(N2C[C@H](C)n3ncc(-c4ccncc4)c3C2=O)ccc1C(F)(F)F [compound 64]	2.63e-08 M	103%	273.9 °C	
C[C@H]1CN(c2ccc(C(F)(F)F)cc2)C(=O)c2c(-c3ccnc(N4CC(O)C4)c3)cnn21 [compound 101]	4.07e-07 M	109%	> 300 °C	
Cc1cc(-c2cnn3c2C(=O)N(c2ccc(S(F)(F)(F)(F)F)cc2)C[C@@H]3C)cc(C)n1 [compound 53]	9.77e-09 M	102%	233.1 °C	
CN(C)c1cc(-c2cnn3c2C(=O)N(c2ccc(Cl)c(Cl)c2)CC3CF)ccn1 (single isomer, unassigned) [compound 91]	5.62e-08 M		86 °C	103%
Cc1cc(-c2cnn3c2C(=O)N(c2ccc(Cl)cc2F)C[C@@H]3C)ccn1 [compound 30]	2.57e-07 M	104%	78.6 °C	
Cc1cc(-c2cnn3c2C(=O)N(c2ccc(OCCF)c(C(F)(F)F)c2)C[C@@H]3C)ccn1 [compound 77, (7S)-5-[4-(2-Fluoroethoxy)-3-(trifluoromethyl)phenyl]-7-methyl-3-(2-methyl-4-pyridyl)-6,7-dihydropyrazolo[1,5-a]pyrazin-4-one]	3.89e-07 M	101%	60.8 °C	
Cc1cc(-c2cnn3c2C(=O)N(c2ccc(C(F)(F)F)cc2)C[C@@H]3C)cnc1C [compound 29]	2.29e-07 M	102%	140.8 °C	
C[C@H]1CN(c2ccc(C(F)(F)F)c(F)c2)C(=O)c2c(-c3ccncc3)cnn21 [compound 60]	3.16e-08 M	101%	163.8 °C	
Cc1cc(-c2cnn3c2C(=O)N(c2cc(F)c(C(F)(F)F)c(F)c2)C[C@@H]3C)ccn1 [compound 132]	2.4e-08 M	103%	148 °C	
C[C@H]1CN(c2ccc(Cl)c(Cl)c2)C(=O)c2c(-c3ccnc(CO)c3)cnn21 [compound 125, (7S)-5-(3,4-Dichlorophenyl)-3-[2-(hydroxymethyl)-4-pyridyl]-7-methyl-6,7-dihydropyrazolo[1,5-a]pyrazin-4-one]	1.78e-07 M	105%	105.4 °C	

The next lines start with the values.

IC50 [1]	Emax [1, 2]	melting point	GTPγS - hmGluR2 anGT Emax [1, 2]	Structure (SMILES)
2.24e-08 M	107%	141.3 °C		CCOc1nc(N2C[C@H](C)n3ncc(-c4ccncc4)c3C2=O)ccc1C(F)(F)F [compound 208]
1.02e-08 M	102%	179.2 °C		CCOc1nc(N2C[C@H](C)n3ncc(-c4cc(C)nc(C)c4)c3C2=O)ccc1C(F)(F)F [compound 205]
6.03e-09 M	105%	64.7 °C		Cc1cc(-c2cnn3c2C(=O)N(c2ccc(Cl)c(OC(F)(F)F)c2)C[C@@H]3C)ccn1 [compound 169]
4.47e-06 M	97%	255.5 °C		Cc1cc(-c2cnn3c2C(=O)N(c2ccc(C(F)(F)F)cc2)CC3C(C)O)ccn1 (stereo not drawn) [compound 217]
1.45e-08 M	103%	162 °C		Cc1cc(N2C[C@H](C)n3ncc(-c4ccncc4)c3C2=O)ccc1C(F)(F)F [compound 153]
1.29e-07 M	102%	185.9 °C		Cc1cc(-c2cnn3c2C(=O)N(c2ccc(C(F)F)cc2)C[C@@H]3C)ccn1 [compound 162]
6.31e-06 M	85%	> 300 °C		C[C@H]1CN(c2ccc(C(F)(F)F)cc2)C(=O)c2c(-c3ccc(N4CCNCC4)nc3)cnn21 [compound 176, (7S)-7-Methyl-3-(6-piperazin-1-yl-3-pyridyl)-5-[4-(trifluoromethyl)phenyl]-6,7-dihydropyrazolo[1,5-a]pyrazin-4-one]
1.07e-07 M	106%	129.5 °C		Cc1cc(-c2cnn3c2C(=O)N(c2ccc(OCC(F)(F)F)cc2)C[C@@H]3C)ccn1 [compound 160]
4.07e-08 M	102%	142.4 °C		CCOc1nc(N2C[C@H](C)n3ncc(-c4ccnc(C)c4)c3C2=O)ccc1C(F)(F)F [compound 189, (7S)-5-[6-Ethoxy-5-(trifluoromethyl)-2-pyridyl]-7-methyl-3-(2-methyl-4-pyridyl)-6,7-dihydropyrazolo[1,5-a]pyrazin-4-one]
1.2e-06 M	103%	157.6 °C		C[C@H]1CN(c2ccc(C(F)(F)F)cc2)C(=O)c2c(-c3ccc(C#N)nc3)cnn21 [compound 151]
2.51e-08 M	106%	108.5 °C		Cc1cc(-c2cnn3c2C(=O)N(c2ccc(OC(F)F)c(Cl)c2)C[C@@H]3C)ccn1 [compound 168]
6.76e-09 M	109%	107.87 °C (dec.)		COc1cc(-c2cnn3c2C(=O)N(c2ccc(C(F)(F)F)c(OC)n2)C[C@@H]3C)ccn1 [compound 240]
3.8e-09 M	109%	147.6 °C		COc1nc(N2C[C@H](C)n3ncc(-c4ccnc(C)c4)c3C2=O)ccc1C(F)(F)F [compound 207]
8.13e-08 M	103%	101.8 °C		C[C@H]1CN(c2ccc(C(F)(F)F)c(C#N)c2)C(=O)c2c(-c3ccncc3)cnn21 [compound 155]
1e-08 M	105%	127.5 °C		Cc1cc(-c2cnn3c2C(=O)N(c2ccc(C(F)F)c(Cl)c2)C[C@@H]3C)ccn1 [compound 174]
1.7e-05 M	94%	158.8 °C		Cc1cc(-c2cnn3c2C(=O)N(c2ccc(C(F)(F)F)cc2)CC3(C)C)ccn1 [compound 171]
